Patent US20240173276A1, “METHODS AND COMPOSITIONS FOR INHIBITING FORMATION OF THE HIV LATENT RESERVOIR” (The University of North Carolina at Chapel Hill, priority 2021, published 2024)

What was measured:
[1] = tested on: HIV-GFP infected primary CD4 T cells; assay: Primary CD4 T cell latency model (HIV-GFP reporter, flow cytometry of GFP- cells); assay type: cell-based, human; conditions: for effect on the formation of latently infected (GFP-) cells: cultured in the presence of inhibitor from 2 dpi for up to 4 weeks, FIG. 1B
Description: Viruses and cell culture: Stocks of HIV-GFP were generated by co-transfection of 293T cells with the pNL4-3-Δ6-dreGFP plasmid (generous gift of Robert Siliciano) and the packaging plasmids PAX2-GagPol) and MD2-VSVG, using Mirus LT1 reagent. At 2 days post transfection virus was harvested from the supernatant and clarified by low speed centrifugation, followed by filtration through a […] filter.
Primary cell latency model: Primary CD4 T cells were isolated from fresh whole blood (purchased from Gulf Coast Regional Blood Center) by Ficoll isolation of peripheral blood mononuclear cells (PBMCs), then magnetic negative selection of CD4 T cells using a CD4 enrichment kit (Stem Cell). Total primary CD4 T cells were activated using anti-CD3/CD28 beads (Thermo Fisher) at a ratio of one bead per cell for 2 days, then infected with HIV-GFP viral supernatant by spinocculation for 2 hrs at 600 g with 4 µg/mL polybrene. The infected cells were then resuspended in fresh RPMI with IL-2 (Peprotech) at 100 U/mL and incubated for two days before actively infected (GFP^+) cells were sorted using a FACSAria flow sorter (Becton Dickson). The purified infected cells (GFP^+) were then maintained at 1-2 million/mL with fresh media and IL-2 added every 2-3 days for 2 weeks. […] Other small molecule inhibitors were purchased from commercial vendors.
HIV latency is regulated by covalent modifications to provirus-associated histones that can promote or repress transcription. These modifications are mediated by a set of host cell enzyme complexes, including histone acetyl transferases (HATs), histone deacetylases (HDACs), histone methyltransferases (HMTs) and histone demethylases (HDMs). To investigate the role of these complexes in the establishment of HIV latency a primary CD4 T cell model of latency was examined. In this model, activated CD4 T cells are infected with a GFP expressing reporter strain of HIV. At 2 dpi, actively infected cells (GFP^+) are sorted to obtain a pure actively infected population, then cultured for 3-4 weeks (FIG. 1A). […] To examine the role of specific histone modifying enzymes in this system, actively infected (GFP^+) cells were isolated at 2 dpi and the cells cultured in the presence of a panel of inhibitors targeting chromatin modifying complexes. […] The infected cells were cultured in the presence of each inhibitor for up to 4 weeks. Each week post infection, the emergence of the latently infected (GFP^−) population was measured by flow cytometry (FIG. 1B).

[2] = tested on: HIV-dreGFP/Thy1.2 infected primary CD4 T cells; assay: HDAC selective inhibitor experiments in HIV-dreGFP/Thy1.2 infected CD4 T cells (viral gene expression by flow cytometry); assay type: cell-based, human; conditions: cultured 14 d in the presence of inhibitor; FIG. 7B
Description: FIGS. 7A-7D show Class I HDAC selective inhibitors reveal druggable dependency on HDAC1 and 2 in latency initiation. A. Schematic overview of HDAC selective inhibitor experiments. […] B. Dose response curve showing the proportion of cells with productive viral gene expression after two weeks of treatment with the indicated inhibitors. Data shown are from one representative cell donor conducted in technical triplicate. C. Time course flow cytometry experiment in HIV-GFP/Thy1.2 infected primary CD4 T cells cultured with the indicated inhibitors. […] D. Mean fluorescent intensity (MFI) of GFP signal in Thy1.2+ cells in data from C. Data shown are representative of three independent experiments.
However, the contribution and roles of individual HDACs are largely unknown. Because of the high homology of HDAC1 and HDAC2 in the enzyme activation site, selective inhibitors for HDAC1 or HDAC2 have not been developed. Thus, the impact of novel small molecules that inhibit both HDAC1 and HDAC2 (HDAC1/2i) or HDAC3 (HDAC3i) on HIV silencing in CD4 T cells was examined. Activated CD4 T cells were infected with HIV-dreGFP/Thy1.2 and cultured for 14 d in the presence of each inhibitor, and viral gene expression was measured by flow cytometry (FIG. 7A).

[3] = previous clinical studies, vorinostat dosing; cited from earlier work
[4] = tested on: HIV-eGFP infected CD4 T cells; assay: Surface marker phenotype of HIV infected CD4 T cells by flow cytometry; assay type: cell-based, human; conditions: vorinostat exposure post stimulation, vs DMSO, FIG. 4
Experimental: HIV gene expression is regulated by a set of host cell transcription factors that vary in activity as CD4 T cells adopt different activation states and sub-lineage identities post activation. […] To investigate this possibility, flow cytometry was performed to examine the surface marker phenotype of HIV infected cells.

Which “effect on the formation of latently infected (GFP-) cells” value (shortened to “effect on the formation”) [1] does the source give for COc1cc2nc(N3CCCN(C)CC3)nc(NC3CCN(Cc4ccccc4)CC3)c2cc1OC [BIX1294] here?
The value was “modest reduction in the percentage of latently infected cells”.

For Nc1cc(F)ccc1NC(=O)/C=C/c1cnn(C/C=C/c2ccccc2)c1 [RGFP966], which “latency prevention (prevention of HIV silencing), dose response” value [2] is on record?
The value was “much lower extent”.

For Nc1ncnc2c1ncn2[C@@H]1O[C@H](C[C@@H](N)CC[C@H](N)C(=O)O)[C@@H](O)[C@H]1O [Singefungin, sinefungin], which “effect on the formation” value [1] is on record?
Its value is “no significant effect”.

For CCCc1cc(C)[nH]c(=O)c1CNC(=O)c1cc(-c2ccc(N3CCN(C(C)C)CC3)nc2)cc2c1cnn2C(C)C [UNC1999], which “effect on the formation” value [1] is on record?
The value was “modest reduction in the percentage of latently infected cells”.

With CC(C)N(C[C@H]1O[C@@H](n2cnc3c(N)ncnc32)[C@H](O)[C@@H]1O)[C@H]1C[C@@H](CCc2nc3cc(C(C)(C)C)ccc3[nH]2)C1 [pinometostat] as the compound, how does the “effect on the formation” value [1] read?
The value was “no significant effect”.

What does the source list for O=C(CCCCCCC(=O)Nc1ccccc1)NO [vorinostat]?
time of declining concentrations [3]: 6 to 24 h; time of peak concentrations [3]: 2 to 6 h; GFP status of treated cells after removal of vorinostat ([1]; 2 weeks vorinostat, then 2 weeks culture without vorinostat, FIG. 2A): remained mostly GFP^−; percentage of latent (GFP-) cells ([1]; 3 weeks post infection, in the presence of vorinostat, DMSO 70%): 10%; reduction of latent (GFP-) population vs vehicle (DMSO) ([1]; 3 weeks post infection, from 70% (DMSO) to 10%): 7 fold; impact on HIV latency, vorinostat in media 0-14 days post infection ([1]; add in / wash out, latently infected cells measured at 3 wpi, FIG. 2B): significant impact; impact on frequency of latently infected cells, addition or removal between 14 dpi and 21 dpi ([1]; add in / wash out, measured at 3 wpi, FIG. 2B): little impact; emergence of latently infected cells, continuous exposure ([1]; continuous vorinostat 500 nM, 3 weeks post infection, FIG. 1C): potently prevented the emergence of latently infected cells; effect on the formation of latently infected (GFP-) cells [1]: potently inhibited the emergence of a latent (GFP^−) population; establishment of latency, pulsatile exposure ([1]; daily 6 h pulse of vorinostat 500 nM followed by 18 h wash-out, 3 weeks, FIG. 1C): significantly block the establishment of latency in a subset of cells; suppression of HIV latency over a range of concentrations ([1]; exposure for two weeks to different vorinostat concentrations, FIG. 2A): clear dose-dependent fashion; fraction of cells with central memory phenotype (CD45RA- CCR7+) ([4]; 2-3 weeks post infection): increased fraction; expression of CD4 T cell activation marker PD-1 [4]: did not lead to increased expression
